Assay results from ChEMBL document CHEMBL1134133, “Neutral inhibitors of the serine protease factor Xa” (Bioorg Med Chem Lett, 2001).

Experiments:
[1] = biological target: Coagulation factor X (Homo sapiens) (UniProt P00742); assay: In vitro inhibition of human coagulation factor X.
[2] = biological target: Serine protease 1 (Homo sapiens) (UniProt P07477); assay: Inhibitory activity against trypsin at pH 8.2
[3] = biological target: Prothrombin (Homo sapiens) (UniProt P00734); assay: Inhibitory activity against thrombin at pH 8.2
[4] = biological target: Urokinase-type plasminogen activator (Homo sapiens) (UniProt P00749); assay: Inhibitory activity against urokinase-type plasminogen activator (microPa) at pH 8.2
[5] = biological target: Tissue-type plasminogen activator (Homo sapiens) (UniProt P00750); assay: Inhibitory activity against tissue plasminogen activator (tissue plasminogen activator) at pH 8.2
[6] = biological target: Vitamin K-dependent protein C (Homo sapiens) (UniProt P04070); assay: Inhibitory activity against Activated protein C at pH 8.2
[7] = biological target: T1, Coagulation factor VII (Homo sapiens) (UniProt P08709); assay: Inhibitory activity against Coagulation factor VII at pH 8.2
T1 sequence (whole entry): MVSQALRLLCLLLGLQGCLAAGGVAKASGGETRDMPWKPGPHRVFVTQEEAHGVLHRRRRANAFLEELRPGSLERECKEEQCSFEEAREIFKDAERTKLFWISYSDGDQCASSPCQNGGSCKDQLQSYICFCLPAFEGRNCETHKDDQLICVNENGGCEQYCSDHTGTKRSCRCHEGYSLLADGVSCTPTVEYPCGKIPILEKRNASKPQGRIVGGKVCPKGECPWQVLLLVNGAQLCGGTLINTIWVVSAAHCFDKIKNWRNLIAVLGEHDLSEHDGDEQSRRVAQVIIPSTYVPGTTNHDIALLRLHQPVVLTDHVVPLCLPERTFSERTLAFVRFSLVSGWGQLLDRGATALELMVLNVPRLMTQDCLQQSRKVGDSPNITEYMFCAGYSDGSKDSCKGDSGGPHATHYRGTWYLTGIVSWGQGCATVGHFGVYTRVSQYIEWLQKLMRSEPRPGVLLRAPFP

[8] = biological target: Plasminogen (Homo sapiens) (UniProt P00747); assay: Inhibitory activity against plasmin at pH 8.2
[9] = biological target: Coagulation factor X (Homo sapiens) (UniProt P00742); assay: Inhibitory activity against serine protease Coagulation factor X at pH 7.4
[10] = biological target: Coagulation factor X (Homo sapiens) (UniProt P00742); assay: Inhibitory activity against serine protease Coagulation factor X at pH 8.2

Chain of Coagulation factor X (Homo sapiens) (P00742 41-179 limits assumed): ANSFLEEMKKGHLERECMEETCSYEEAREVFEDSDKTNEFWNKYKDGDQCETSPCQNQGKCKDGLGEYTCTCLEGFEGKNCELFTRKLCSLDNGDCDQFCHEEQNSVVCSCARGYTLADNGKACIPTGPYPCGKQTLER
Chain of Coagulation factor X (Homo sapiens) (P00742 235-488 limits assumed): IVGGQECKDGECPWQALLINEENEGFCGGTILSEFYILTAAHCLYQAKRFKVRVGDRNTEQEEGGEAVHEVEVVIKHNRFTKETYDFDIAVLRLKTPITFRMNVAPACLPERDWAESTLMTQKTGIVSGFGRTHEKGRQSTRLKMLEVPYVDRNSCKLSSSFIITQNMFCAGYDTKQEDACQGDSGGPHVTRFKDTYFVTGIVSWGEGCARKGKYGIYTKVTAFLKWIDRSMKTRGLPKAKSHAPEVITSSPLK
Chain of Vitamin K-dependent protein C (Homo sapiens) (P04070 43-197 limits assumed): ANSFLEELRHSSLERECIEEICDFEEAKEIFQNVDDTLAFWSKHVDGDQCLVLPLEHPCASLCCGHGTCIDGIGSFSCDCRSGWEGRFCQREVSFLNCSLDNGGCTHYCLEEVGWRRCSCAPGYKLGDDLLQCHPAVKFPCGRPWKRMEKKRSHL
Chain of Vitamin K-dependent protein C (Homo sapiens) (P04070 212-461 limits assumed): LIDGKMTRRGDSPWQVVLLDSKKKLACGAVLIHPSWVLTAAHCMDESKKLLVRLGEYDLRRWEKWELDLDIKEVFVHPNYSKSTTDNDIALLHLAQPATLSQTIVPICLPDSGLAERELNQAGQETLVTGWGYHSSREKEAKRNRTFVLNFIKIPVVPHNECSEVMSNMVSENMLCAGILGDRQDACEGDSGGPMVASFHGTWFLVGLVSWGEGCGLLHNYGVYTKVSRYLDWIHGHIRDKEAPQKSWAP
Chain of Serine protease 1 (Homo sapiens) (P07477 whole entry): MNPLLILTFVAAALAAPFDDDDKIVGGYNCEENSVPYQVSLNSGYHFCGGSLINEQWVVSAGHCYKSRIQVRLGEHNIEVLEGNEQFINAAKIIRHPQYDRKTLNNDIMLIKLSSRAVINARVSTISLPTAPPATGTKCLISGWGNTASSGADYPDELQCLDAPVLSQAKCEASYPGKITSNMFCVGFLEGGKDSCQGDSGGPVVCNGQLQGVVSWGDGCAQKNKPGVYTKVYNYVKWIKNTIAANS
Chain of Tissue-type plasminogen activator (Homo sapiens) (P00750 36-562 limits assumed): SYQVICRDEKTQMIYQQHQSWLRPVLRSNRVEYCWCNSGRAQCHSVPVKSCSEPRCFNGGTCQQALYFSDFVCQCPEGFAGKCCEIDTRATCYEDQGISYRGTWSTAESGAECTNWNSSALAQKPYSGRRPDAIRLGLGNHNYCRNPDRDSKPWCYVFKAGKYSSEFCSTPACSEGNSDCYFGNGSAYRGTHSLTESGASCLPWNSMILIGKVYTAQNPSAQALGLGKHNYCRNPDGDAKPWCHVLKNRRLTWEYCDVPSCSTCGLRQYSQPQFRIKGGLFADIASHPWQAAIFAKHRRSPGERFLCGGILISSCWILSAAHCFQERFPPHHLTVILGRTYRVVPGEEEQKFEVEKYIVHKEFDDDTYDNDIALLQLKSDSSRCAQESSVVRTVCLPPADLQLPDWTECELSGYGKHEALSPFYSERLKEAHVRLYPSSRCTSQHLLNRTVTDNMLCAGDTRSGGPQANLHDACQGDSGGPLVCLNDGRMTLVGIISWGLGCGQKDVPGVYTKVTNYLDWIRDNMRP
Chain of Plasminogen (Homo sapiens) (P00747 whole entry, looked up): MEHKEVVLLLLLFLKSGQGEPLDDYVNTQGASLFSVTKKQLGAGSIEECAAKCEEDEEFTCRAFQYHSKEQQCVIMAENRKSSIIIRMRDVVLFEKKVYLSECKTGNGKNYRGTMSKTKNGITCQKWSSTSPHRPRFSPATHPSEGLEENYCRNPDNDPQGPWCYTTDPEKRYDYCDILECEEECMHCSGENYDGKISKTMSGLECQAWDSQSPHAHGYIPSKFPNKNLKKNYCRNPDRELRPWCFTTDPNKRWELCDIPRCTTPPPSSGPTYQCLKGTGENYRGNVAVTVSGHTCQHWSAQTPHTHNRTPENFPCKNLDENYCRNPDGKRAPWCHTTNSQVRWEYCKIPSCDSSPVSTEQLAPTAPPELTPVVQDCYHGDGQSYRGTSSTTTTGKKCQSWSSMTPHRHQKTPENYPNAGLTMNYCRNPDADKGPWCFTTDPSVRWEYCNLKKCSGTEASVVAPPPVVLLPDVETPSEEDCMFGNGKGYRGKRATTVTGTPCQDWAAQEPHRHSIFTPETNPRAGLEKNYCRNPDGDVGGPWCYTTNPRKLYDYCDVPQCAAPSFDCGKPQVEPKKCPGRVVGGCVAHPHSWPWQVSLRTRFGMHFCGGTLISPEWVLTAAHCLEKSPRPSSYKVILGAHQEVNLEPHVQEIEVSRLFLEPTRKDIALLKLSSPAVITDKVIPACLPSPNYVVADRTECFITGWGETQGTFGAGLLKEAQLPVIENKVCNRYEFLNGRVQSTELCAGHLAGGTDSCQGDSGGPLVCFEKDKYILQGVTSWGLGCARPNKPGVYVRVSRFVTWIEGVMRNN

| Ki' [1] [µM] | SMILES | other results |
| --- | --- | --- |
| 436 | Cc1ccc(NC(=O)c2sc3ccccc3c2Cl)c(C(=O)Nc2ccc(N3CCOCC3)cc2)c1 | – |
| > 150 | O=C(Nc1ccccc1C(=O)N1CCOCC1)c1sc2ccccc2c1Cl | – |
| > 1200 | Cc1ccc(NC(=O)c2sc3ccccc3c2Cl)c(C(=O)Nc2ccc(N(C)C)cc2)c1 | – |
| 0.57 | Cc1ccc(NC(=O)c2sc3ccccc3c2Cl)c(C(=O)Nc2ccc(F)cc2)c1 | Ki' [2]: > 150 µM; Ki' [3]: 125 µM; Ki' [4]: > 150 µM; Ki' [5]: > 150 µM; Ki' [6]: > 150 µM; Ki' [7]: > 900 µM; Ki' [8]: > 150 µM; Ki' [9]: 0.042 µM; Ki' [10]: 2.1 µM |
| 2.1 | COc1ccc(NC(=O)c2cc(C)ccc2NC(=O)c2sc3ccccc3c2Cl)cc1 | – |
| > 1200 | Cc1ccc(NC(=O)c2sc3ccccc3c2Cl)c(C(=O)Nc2ccccc2Cl)c1 | – |
| 3.5 | Cc1ccc(NC(=O)c2cc3cc(O)ccc3s2)c(C(=O)Nc2ccc(F)cc2)c1 | – |
| 3.1 | O=C(Nc1ccc(F)cc1)c1ccccc1NC(=O)c1sc2ccccc2c1Cl | – |
| 7.8 | O=C(Nc1ccccn1)c1ccccc1NC(=O)c1sc2ccccc2c1Cl | – |
| 10 | Cc1ccc(NC(=O)c2cc3ccc(O)cc3s2)c(C(=O)Nc2ccc(F)cc2)c1 | – |
| 22.1 | Cc1ccc(NC(=O)c2sc3ccccc3c2Cl)c(C(=O)Nc2ccncc2)c1 | – |
| > 150 | O=C(O)c1ccc(NC(=O)c2ccccc2NC(=O)c2sc3ccccc3c2Cl)cc1 | – |
| 0.21 | Cc1ccc(NC(=O)c2sc3ccccc3c2Cl)c(C(=O)Nc2ccc(Cl)cc2)c1 | – |
| > 150 | O=C(O)c1cccc(NC(=O)c2ccccc2NC(=O)c2sc3ccccc3c2Cl)c1 | – |
| 97 | Cc1ccc(NC(=O)c2sc3ccccc3c2Cl)c(C(=O)Nc2ccc(O)cc2)c1 | – |
| > 1200 | Cc1ccc(NC(=O)c2sc3ccccc3c2Cl)c(C(=O)N2CCNCC2)c1 | – |
| 17.7 | Cc1ccc(NC(=O)c2sc3ccccc3c2Cl)c(C(=O)Nc2ccc3c(c2)OCO3)c1 | – |
